Reference: the NIST ThermoML archive (doi:10.1021/je7000182)

Experiments:
[1] = for mass density: 101 kPa, Liquid
[2] = xn = mol fraction of the nth substance listed; conditions: x2 = 0; for mass density: 101 kPa, Liquid

CC(C)=O [acetone]
[1], Pendant drop shape
Conditions | surface tension liquid-gas [mN/m]
288.15 K | 24.34
298.15 K | 23.02
308.15 K | 21.72
318.15 K | 20.38
328.15 K | 19.15

[1]
Conditions | mass density [kg/m3]
288.15 K | 795.65
293.15 K | 790.04
298.15 K | 784.33
303.15 K | 778.57
308.15 K | 772.76
313.15 K | 766.91
318.15 K | 760.99
323.15 K | 755.02
328.15 K | 748.98

Cc1ccccc1 [toluene]
[1]
Conditions | mass density [kg/m3] | surface tension liquid-gas [mN/m]
288.15 K | 871.41 | 28.9
293.15 K | 866.77 | –
298.15 K | 862.12 | 27.76
303.15 K | 857.46 | –
308.15 K | 852.78 | 26.77
313.15 K | 848.08 | –
318.15 K | 843.37 | 25.72
323.15 K | 838.64 | –
328.15 K | 833.9 | 24.27

Cc1ccccc1 [toluene] + CC(C)=O
[2]
Conditions | mass density [kg/m3] | surface tension liquid-gas [mN/m]
288.15 K | 871.41 | 28.9
293.15 K | 866.77 | –
298.15 K | 862.12 | 27.76
303.15 K | 857.46 | –
308.15 K | 852.78 | 26.77
313.15 K | 848.08 | –
318.15 K | 843.37 | 25.72
323.15 K | 838.64 | –
328.15 K | 833.9 | 24.27

O [water] + CC(C)=O
[2], Pendant drop shape
Conditions | surface tension liquid-gas [mN/m]
288.15 K | 73.49
298.15 K | 71.98
308.15 K | 70.41
318.15 K | 68.78
328.15 K | 67.09

[2]
Conditions | mass density [kg/m3]
323.15 K | 988.01
328.15 K | 985.69
